Experimental data reported in patent EP4417602A1, “SUBSTITUTED PYRAZOLE CARBOXAMIDES, SALTS THEREOF AND THEIR USE AS HERBICIDALLY ACTIVE SUBSTANCES” (Bayer AG, priority 2023, dated 2024).

Experiments:
LOLRI [1] = assay: A. Herbicidal pre-emergence action on harmful plants (Tables A); type: in vivo, Lolium rigidum; details: visual grading after ca. 3 weeks vs untreated controls, 100% = plants have died off, 0% = as control plants
How it was run: (§1)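 Greenhouse pre-emergence test: compound applied to the soil surface at 1280 g/ha or below, and herbicidal effect rated visually at ca. 3 weeks on a 0–100% scale against untreated plants.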

MATIN [2] = assay: as above; type: in vivo, Matricaria inodora; details: visual grading after ca. 3 weeks vs untreated controls, 100% = plants have died off, 0% = as control plants
How it was run: as §1

POAAN = assay: as above; type: in vivo, Poa annua
How it was run: as §1

ECHCG [3] = assay: B. Herbicidal post-emergence action on harmful plants (Tables B); type: in vivo, Echinochloa crus-galli; details: application rate 1280 g/ha; Table B2a
How it was run: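 Activity was scored visually as % damage (100% = dead, 0% = like untreated) about 3 weeks after treatment. Plants at the one-leaf stage, 2-3 weeks old, were sprayed with WP/EC formulations plus 0.5% additive (600 L/ha water, up to 1280 g/ha). Plants were grown in sandy loam in a greenhouse.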

ALOMY [4] = assay: C. Herbicidal pre-emergence action, weed and crop plants (Tables C); type: in vivo, Alopecurus myosuroides
Excerpt: (§2) Seeds of mono- and dicotyledonous weed plants and crop plants were sown, in plastic or organic planting pots, in sandy loam and covered with soil. The compounds according to the invention, formulated in the form of wettable powders (WP) or as emulsifiable concentrates (EC), were applied to the surface of the covering soil as aqueous suspension or emulsion, with the addition of 0.5% of an additive, at an application rate of 6001 of water/ha (converted). Following treatment, the pots were placed in a greenhouse and kept under optimum growth conditions for the test plants. The visual grading of the damage to the test plants was carried out after ca. 3 weeks in comparison to untreated controls (herbicidal effect in percent (%): 100% effect = plants have died off, 0% effect = as control plants). Tables C1 to C12 below show the effects of selected compounds of the general formula (I) according to table 1 on various harmful plants and an application rate corresponding to 320 g/ha or below obtained by the experimental procedure mentioned above. Table C1: pre-emergence activity at 320g/ha against KCHSC in %

DIGSA = assay: as above; type: in vivo, Digitaria sanguinalis
How it was run: (§3)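 Seeds were sown in sandy loam and covered with soil. WP or EC formulations were sprayed onto the soil surface as aqueous suspension or emulsion with 0.5% additive, at rates of 320 g/ha or below. Plants were kept in a greenhouse, and damage was scored visually after about 3 weeks as % effect versus untreated controls (100% = dead, 0% = like control).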

ECHCG [5] = assay: as above; type: in vivo, Echinochloa crus-galli
How it was run: as §3

LOLRI [6] = assay: as above; type: in vivo, Lolium rigidum; details: application rate 320 g/ha; Table C7a
Excerpt: as §2

MATIN [7] = assay: as above; type: in vivo, Matricaria inodora; details: application rate 320 g/ha; Table C8
Excerpt: as §2

SETVI = assay: as above; type: in vivo, Setaria viridis; details: application rate 320 g/ha; Table C10
Excerpt: as §2

BRSNW = assay: D. Pre-emergence effects on crop plants (Tables D); type: in vivo, Brassica napus; details: crop plant
How it was run: (§4)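 Pre-emergence soil-surface treatment at 320 g/ha or lower, using wettable-powder or emulsifiable-concentrate formulations in water plus 0.5% additive, over freshly sown seeds in covered sandy loam. Damage was rated visually as percent versus untreated pots (100% = dead plants) after about 3 weeks of greenhouse growth.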

ALOMY [8] = assay: A. Herbicidal pre-emergence action on harmful plants (Tables A); type: in vivo, Alopecurus myosuroides; details: application rate 1280 g/ha; Table A9a
How it was run: as §1

GLXMA = assay: D. Pre-emergence effects on crop plants (Tables D); type: in vivo, Glycine max; details: crop plant
How it was run: as §4

[9] = application rate 80 g/ha, Table A7c
[10] = application rate 320 g/ha, Table A7b
[11] = application rate 1280 g/ha, visual grading after ca. 3 weeks vs untreated controls, 100% = plants have died off, 0% = as control plants
[12] = application rate 320 g/ha, Table C2a
[13] = application rate 80 g/ha, Table C5b
[14] = application rate 320 g/ha, Table C5a
[15] = application rate 320 g/ha, Table C6a
[16] = application rate 80 g/ha, Table C6b
[17] = application rate 80 g/ha, Table D4b
[18] = application rate 320 g/ha, Table D4a

COCc1nn(C)cc1C(=O)N1CCCC1Cc1ccccc1F (racemic) [Example I-002]
pre-emergence activity against LOLRI (LOLRI [1]; application rate 80 g/ha): 90% | pre-emergence activity against LOLRI (LOLRI [1]; application rate 320 g/ha): 90% | pre-emergence activity against LOLRI (LOLRI [1]; application rate 1280 g/ha): 100% | pre-emergence activity against MATIN (MATIN [2]; application rate 320 g/ha): 90% | pre-emergence activity against MATIN (MATIN [2]; application rate 1280 g/ha): 90% | pre-emergence activity against POAAN (POAAN; [9]): 100% | pre-emergence activity against POAAN (POAAN; [10]): 100% | pre-emergence activity against POAAN (POAAN; [11]): 100% | post-emergence activity against ECHCG (ECHCG [3]): 90% | pre-emergence activity against ALOMY (ALOMY [4]; [12]): 90% | pre-emergence activity against DIGSA (DIGSA; [13]): 90% | pre-emergence activity against DIGSA (DIGSA; [14]): 90% | pre-emergence activity against ECHCG (ECHCG [5]; [15]): 90% | pre-emergence activity against LOLRI (LOLRI [6]): 90% | pre-emergence activity against MATIN (MATIN [7]): 80% | pre-emergence activity against SETVI (SETVI): 80% | pre-emergence activity against BRSNW in % (BRSNW; application rate 80 g/ha): 0% | pre-emergence activity against BRSNW in % (BRSNW; application rate 320 g/ha): 0%

COCc1nn(C(=O)OC(C)(C)C)cc1C(=O)N1CCCC1Cc1ccccc1F (racemic) [Example I-040]
pre-emergence activity against LOLRI (LOLRI [1]; application rate 320 g/ha): 90% | pre-emergence activity against LOLRI (LOLRI [1]; application rate 1280 g/ha): 100% | pre-emergence activity against MATIN (MATIN [2]; application rate 1280 g/ha): 90% | pre-emergence activity against POAAN (POAAN; [10]): 100% | pre-emergence activity against POAAN (POAAN; [11]): 100% | pre-emergence activity against ALOMY (ALOMY [8]): 90% | post-emergence activity against ECHCG (ECHCG [3]): 90% | pre-emergence activity against ALOMY (ALOMY [4]; [12]): 80% | pre-emergence activity against DIGSA (DIGSA; [13]): 80% | pre-emergence activity against DIGSA (DIGSA; [14]): 90% | pre-emergence activity against ECHCG (ECHCG [5]; [16]): 80% | pre-emergence activity against ECHCG (ECHCG [5]; [15]): 90% | pre-emergence activity against LOLRI (LOLRI [6]): 100% | pre-emergence activity against MATIN (MATIN [7]): 80% | pre-emergence activity against SETVI (SETVI): 80% | pre-emergence activity against GLXMA (GLXMA; [17]): 0% | pre-emergence activity against BRSNW in % (BRSNW; application rate 80 g/ha): 0% | pre-emergence activity against BRSNW in % (BRSNW; application rate 320 g/ha): 0%

C=C(c1ccccc1F)C1CCCN1C(=O)c1cn(C)nc1COC (racemic) [Example I-023]
pre-emergence activity against LOLRI (LOLRI [1]; application rate 320 g/ha): 100% | pre-emergence activity against LOLRI (LOLRI [1]; application rate 1280 g/ha): 100% | pre-emergence activity against MATIN (MATIN [2]; application rate 320 g/ha): 90% | pre-emergence activity against MATIN (MATIN [2]; application rate 1280 g/ha): 90% | pre-emergence activity against POAAN (POAAN; [9]): 100% | pre-emergence activity against POAAN (POAAN; [10]): 100% | pre-emergence activity against POAAN (POAAN; [11]): 100% | pre-emergence activity against ALOMY (ALOMY [8]): 90% | post-emergence activity against ECHCG (ECHCG [3]): 90% | pre-emergence activity against ALOMY (ALOMY [4]; [12]): 100% | pre-emergence activity against DIGSA (DIGSA; [13]): 90% | pre-emergence activity against DIGSA (DIGSA; [14]): 100% | pre-emergence activity against ECHCG (ECHCG [5]; [15]): 90% | pre-emergence activity against LOLRI (LOLRI [6]): 100% | pre-emergence activity against MATIN (MATIN [7]): 80% | pre-emergence activity against SETVI (SETVI): 90% | pre-emergence activity against GLXMA (GLXMA; [17]): 0% | pre-emergence activity against GLXMA (GLXMA; [18]): 0% | pre-emergence activity against BRSNW in % (BRSNW; application rate 80 g/ha): 0% | pre-emergence activity against BRSNW in % (BRSNW; application rate 320 g/ha): 0%

COCc1nn(C)cc1C(=O)N1CCCC1C(O)c1ccccc1F (single isomer, unassigned) [Example I-053]
pre-emergence activity against LOLRI (LOLRI [1]; application rate 320 g/ha): 90% | pre-emergence activity against LOLRI (LOLRI [1]; application rate 1280 g/ha): 90% | pre-emergence activity against MATIN (MATIN [2]; application rate 1280 g/ha): 90% | pre-emergence activity against POAAN (POAAN; [10]): 90% | pre-emergence activity against POAAN (POAAN; [11]): 100% | post-emergence activity against ECHCG (ECHCG [3]): 90% | pre-emergence activity against ALOMY (ALOMY [4]; application rate 80 g/ha, Table C2b): 80% | pre-emergence activity against ALOMY (ALOMY [4]; [12]): 90% | pre-emergence activity against DIGSA (DIGSA; [13]): 80% | pre-emergence activity against DIGSA (DIGSA; [14]): 90% | pre-emergence activity against ECHCG (ECHCG [5]; [16]): 90% | pre-emergence activity against ECHCG (ECHCG [5]; [15]): 100% | pre-emergence activity against LOLRI (LOLRI [6]): 90% | pre-emergence activity against MATIN (MATIN [7]): 80% | pre-emergence activity against SETVI (SETVI): 90% | pre-emergence activity against GLXMA (GLXMA; [17]): 0% | pre-emergence activity against GLXMA (GLXMA; [18]): 10% | pre-emergence activity against BRSNW in % (BRSNW; application rate 80 g/ha): 10%
